Columns and labels:
Format in all cases: biochemical
[1] = tested on: α-chymotrypsin (CT), free enzyme (free CT); test: Kinetic constants by hydrolysis of MUTMAC, free enzyme (Free-CT)
Experimental: (§1) The kinetic constants of SEEN-CT (Example 1), RM-SEEN-CT (Comparative Example 1) and free enzyme (free CT) were measured by hydrolysis of MUTMAC. The values were obtained by nonlinear regression based on the least square method.

[2] = tested on: α-chymotrypsin (CT), silica encapsulated single-enzyme nanoparticles SEEN-CT (Example 1); test: Kinetic constants by hydrolysis of MUTMAC, silica encapsulated single-enzyme nanoparticles SEEN-CT (Example 1)
Experimental: Silica encapsulated single-enzyme nanoparticles were prepared using α-chymotrypsin (CT) as schematically described in FIG. 1. Specifically, the synthesis of the silica encapsulated single-enzyme nanoparticles began with dissolution of the enzyme in an aqueous solution with an organic solvent. CT was dissolved in a 10 mM Bis-Tris propane (pH 7.8) buffer containing 1% isopropanol and 2 mM calcium chloride to a concentration of 1 mg/mL. Subsequently, 2 mM AOT added to hexane of the same volume was mixed with the enzyme solution. After stirring at room temperature for 15 minutes, phase separation was conducted through centrifugation. Only the hexane layer containing the solubilized enzyme was separated and then hexane was evaporated using nitrogen gas to adjust the concentration to 1 mg/mL.
Next, a mixture solution of TMOS:hexane (1:1) was added to the enzyme-containing hexane solution with a volume of 1% thereof and stored at 4° C. for 17 hours.
Then, after storing for 1.5 hours at room temperature and adding a 200 mM sodium phosphate buffer (pH 7.8) corresponding to 2 times the volume of the hexane, the mixture was stirred at 250 rpm for 10 minutes. After phase separation occurred through centrifugation, only the aqueous solution layer was separated. Then, impurities were filtered off through a 100-nm filter.
Subsequently, the enzyme extracted into the aqueous solution phase was stored at 4° C. for 3 days. After the 3 days, unreacted TMOS and AOT molecules were removed while replacing with a 10 mM sodium phosphate buffer using an ultrafiltration device. The as-synthesized silica encapsulated single-enzyme nanoparticles were stored at 4° C. until use.
as §1

[3] = tested on: α-chymotrypsin (CT), reverse micelle-silica encapsulated single-enzyme nanoparticles RM-SEEN-CT (Comparative Example 1); test: Kinetic constants by hydrolysis of MUTMAC, reverse micelle-silica encapsulated RM-SEEN-CT (Comparative Example 1)
Experimental: Hexane containing 100 mM AOT as surfactant, and a small amount of a 10 mM Bis-Tris propane buffer containing enzymes were added. The amount of the added aqueous solution was adjusted such that its molar concentration was 20 times that of AOT. Then, the enzymes were solubilized to hexane by stirring for 10 minutes. The procedure following the solubilization of the enzymes in hexane was similar to Example 1.
In the reverse micelle method, which was employed for comparison with the method for manufacturing silica encapsulated single-enzyme nanoparticles according to the present disclosure, condensation of the silica precursor proceeds faster because more water molecules are present around the enzyme. As a result, a thicker silica network will be formed and the Michaelis-Menten constant may increase.
as §1

[4] = nonlinear regression, least square method
[5] = SEEN-CT, hydrolysis of MUTMAC, nonlinear regression, least square method
[6] = RM-SEEN-CT, hydrolysis of MUTMAC, nonlinear regression, least square method

Cc1cc(=O)oc2cc(OC(=O)/C=C/c3ccc([N+](C)(C)C)cc3)ccc12 [MUTMAC]
kcat/Km [1]: 7.6 ± 0.2 × 10^5M^−1s^−1
Km [1, 4]: 41.8 ± 0.1 µM
kcat [1, 4]: 31.8 ± 0.8 s⁻¹
decrease of catalytic efficiency, kcat/Km, as compared to free CT ([2]; SEEN-CT as compared to free CT): 21%
kcat/Km ([2]; SEEN-CT, hydrolysis of MUTMAC): 6.0 ± 0.1 × 10^5M^−1s^−1
Km [2, 5]: 42.4 ± 0.1 µM
kcat [2, 5]: 25.4 ± 0.1 s⁻¹
decrease of catalytic efficiency, kcat/Km, as compared to free CT ([3]; RM-SEEN-CT as compared to free CT): about 48%
kcat/Km ([3]; RM-SEEN-CT, hydrolysis of MUTMAC): 3.9 ± 0.1 × 10^5M^−1s^−1
Km [3, 6]: 76.8 ± 3.6 µM
kcat [3, 6]: 30.3 ± 0.8 s⁻¹

Source: patent US9458448B2, “Manufacturing method for silica encapsulated single-enzyme nanoparticles and single-enzyme nanoparticles manufactured by means of method” (Korea University Research and Business Foundation, priority 2011, dated 2016)
